Results published in US9029386B2, “Pyridine derivatives useful as kinase inhibitors” (YM Biosciences Australia Pty Ltd, priority 2006, dated 2015).
pIC50: −log10 of the molar value.

Tests used:
[1] = molecular target: T1, kinase domain of human CSF1-R (Homo sapiens, UniProt P07333); test: Alphascreen protein tyrosine kinase assay, CSF-1R; type: biochemical
T1 construct: from codon I553 to Q961; made in house; host or cells: Sf9 insect cells (baculovirus)
T1 sequence (P07333 553-961): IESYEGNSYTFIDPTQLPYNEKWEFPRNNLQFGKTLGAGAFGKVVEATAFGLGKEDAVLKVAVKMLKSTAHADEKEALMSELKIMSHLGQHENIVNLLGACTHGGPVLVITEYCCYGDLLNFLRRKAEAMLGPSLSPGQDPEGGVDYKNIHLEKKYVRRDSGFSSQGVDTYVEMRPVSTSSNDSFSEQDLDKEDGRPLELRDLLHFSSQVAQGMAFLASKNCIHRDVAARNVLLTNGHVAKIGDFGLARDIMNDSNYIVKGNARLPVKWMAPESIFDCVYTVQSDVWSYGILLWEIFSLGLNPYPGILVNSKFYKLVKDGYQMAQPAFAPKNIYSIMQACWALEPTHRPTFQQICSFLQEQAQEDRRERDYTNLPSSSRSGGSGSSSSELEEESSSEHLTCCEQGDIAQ
Method: (§1) For screening purposes, compounds were diluted in 96 well plates at a concentration of 20 μM. Plates were warmed at 37° C. for 30 minutes before assay.
The kinase domain of human CSF1-R from codon I553 to Q961 was cloned into the pDEST-20 expression vector (Invitrogen). The CSF1-R plasmid was then transformed into competent DH10Bac cells (Gibco), and the recombinant baculovirus produced prepared for transfection into Sf9 insect cells.
(§2) Baculovirus preparations from each of construct were infected into five liters of SF9 cells (Invitrogen) grown in SF-900 medium (Invitrogen) to a cell density of approximately 1−2×10^6 cells/ml. […] Cells were harvested and lysed. Tyrosine kinase domains were purified by affinity chromatography on a glutathione-agarose column (Scientifix Pty. Ltd. catalog #: GSH-200).
(§3) Kinase assays were performed in 384 well Optiplates (Packard) using an Alphascreen Protein Tyrosine Kinase kit. […] Alphascreen phosphotyrosine acceptor beads followed by streptavidin donor beads were added under subdued light. The Alphascreen plates were read on a Packard Fusion Alpha. Inhibitors were added to the assays thirty minutes prior to the addition of ATP. Inhibitors were added in aqueous DMSO, with DMSO concentrations never exceeding 1%.

[2] = molecular target: T2, kinase domain of human c-kit (Homo sapiens, UniProt P10721); test: Alphascreen protein tyrosine kinase assay, c-KIT; type: biochemical
T2 construct: from codon M552 to end; made in house; host or cells: Sf9 insect cells (baculovirus)
T2 sequence (P10721 552-976 limits assumed): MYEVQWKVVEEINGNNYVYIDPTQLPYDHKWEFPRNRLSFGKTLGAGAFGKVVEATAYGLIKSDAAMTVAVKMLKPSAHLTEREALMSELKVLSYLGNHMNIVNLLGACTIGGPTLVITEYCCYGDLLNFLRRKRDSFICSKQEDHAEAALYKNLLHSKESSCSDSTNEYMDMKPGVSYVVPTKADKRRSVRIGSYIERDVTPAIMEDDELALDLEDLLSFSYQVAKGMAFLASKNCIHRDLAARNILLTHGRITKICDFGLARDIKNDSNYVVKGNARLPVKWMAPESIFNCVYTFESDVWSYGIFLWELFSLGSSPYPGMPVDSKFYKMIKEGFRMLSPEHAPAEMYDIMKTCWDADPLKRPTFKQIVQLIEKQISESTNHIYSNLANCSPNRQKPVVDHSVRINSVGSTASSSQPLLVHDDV
Method: as §1
The kinase domain of human c-kit from codon M552 to end was cloned into the pDEST-20 expression vector (Invitrogen). The c-kit plasmid was then transformed into competent DH10Bac cells (Gibco), and the recombinant baculovirus produced prepared for transfection into Sf9 insect cells.
as §2, §3

PDGFR β tyrosine kinase = molecular target: T3, PDGFR β tyrosine kinase (Homo sapiens, UniProt P09619); test: Alphascreen protein tyrosine kinase assay, PDGFRβ; type: biochemical
T3 construct: purchased Upstate Cell Signalling Solutions, CA, USA 14-463
T3 sequence (P09619 33-1106): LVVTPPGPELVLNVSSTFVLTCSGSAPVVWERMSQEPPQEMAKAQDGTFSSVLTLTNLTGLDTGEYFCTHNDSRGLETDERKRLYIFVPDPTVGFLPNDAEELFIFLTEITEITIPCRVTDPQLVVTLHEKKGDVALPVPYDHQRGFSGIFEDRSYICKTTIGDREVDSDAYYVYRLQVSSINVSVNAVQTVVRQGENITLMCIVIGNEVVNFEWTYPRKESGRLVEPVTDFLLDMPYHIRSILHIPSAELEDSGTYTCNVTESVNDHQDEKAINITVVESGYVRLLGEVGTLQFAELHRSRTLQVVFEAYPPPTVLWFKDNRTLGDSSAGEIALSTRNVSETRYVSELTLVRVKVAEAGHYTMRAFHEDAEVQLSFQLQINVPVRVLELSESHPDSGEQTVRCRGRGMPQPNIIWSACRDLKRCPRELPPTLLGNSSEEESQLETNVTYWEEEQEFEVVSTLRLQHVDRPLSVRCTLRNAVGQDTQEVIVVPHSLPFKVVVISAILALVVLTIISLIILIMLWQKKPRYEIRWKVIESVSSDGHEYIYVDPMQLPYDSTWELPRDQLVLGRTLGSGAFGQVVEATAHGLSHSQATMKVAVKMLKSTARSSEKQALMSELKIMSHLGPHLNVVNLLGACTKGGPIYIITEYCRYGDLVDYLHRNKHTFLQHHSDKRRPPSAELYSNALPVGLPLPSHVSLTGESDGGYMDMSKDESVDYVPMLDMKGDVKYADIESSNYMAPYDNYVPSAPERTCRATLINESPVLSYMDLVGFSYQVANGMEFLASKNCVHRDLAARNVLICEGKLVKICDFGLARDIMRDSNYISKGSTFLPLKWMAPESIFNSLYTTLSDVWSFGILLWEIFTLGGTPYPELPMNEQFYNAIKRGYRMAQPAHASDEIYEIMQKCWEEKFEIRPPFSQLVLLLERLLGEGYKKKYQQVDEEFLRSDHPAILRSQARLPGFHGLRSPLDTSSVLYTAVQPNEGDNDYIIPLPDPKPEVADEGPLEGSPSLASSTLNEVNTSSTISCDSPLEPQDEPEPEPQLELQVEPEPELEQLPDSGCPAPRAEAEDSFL

KDR protein kinase = molecular target: T4, KDR protein kinase (Homo sapiens, UniProt P35968); test: Alphascreen protein tyrosine kinase assay, KDR; type: biochemical
T4 construct: purchased Millipore 14-630M
T4 sequence (P35968 20-1356): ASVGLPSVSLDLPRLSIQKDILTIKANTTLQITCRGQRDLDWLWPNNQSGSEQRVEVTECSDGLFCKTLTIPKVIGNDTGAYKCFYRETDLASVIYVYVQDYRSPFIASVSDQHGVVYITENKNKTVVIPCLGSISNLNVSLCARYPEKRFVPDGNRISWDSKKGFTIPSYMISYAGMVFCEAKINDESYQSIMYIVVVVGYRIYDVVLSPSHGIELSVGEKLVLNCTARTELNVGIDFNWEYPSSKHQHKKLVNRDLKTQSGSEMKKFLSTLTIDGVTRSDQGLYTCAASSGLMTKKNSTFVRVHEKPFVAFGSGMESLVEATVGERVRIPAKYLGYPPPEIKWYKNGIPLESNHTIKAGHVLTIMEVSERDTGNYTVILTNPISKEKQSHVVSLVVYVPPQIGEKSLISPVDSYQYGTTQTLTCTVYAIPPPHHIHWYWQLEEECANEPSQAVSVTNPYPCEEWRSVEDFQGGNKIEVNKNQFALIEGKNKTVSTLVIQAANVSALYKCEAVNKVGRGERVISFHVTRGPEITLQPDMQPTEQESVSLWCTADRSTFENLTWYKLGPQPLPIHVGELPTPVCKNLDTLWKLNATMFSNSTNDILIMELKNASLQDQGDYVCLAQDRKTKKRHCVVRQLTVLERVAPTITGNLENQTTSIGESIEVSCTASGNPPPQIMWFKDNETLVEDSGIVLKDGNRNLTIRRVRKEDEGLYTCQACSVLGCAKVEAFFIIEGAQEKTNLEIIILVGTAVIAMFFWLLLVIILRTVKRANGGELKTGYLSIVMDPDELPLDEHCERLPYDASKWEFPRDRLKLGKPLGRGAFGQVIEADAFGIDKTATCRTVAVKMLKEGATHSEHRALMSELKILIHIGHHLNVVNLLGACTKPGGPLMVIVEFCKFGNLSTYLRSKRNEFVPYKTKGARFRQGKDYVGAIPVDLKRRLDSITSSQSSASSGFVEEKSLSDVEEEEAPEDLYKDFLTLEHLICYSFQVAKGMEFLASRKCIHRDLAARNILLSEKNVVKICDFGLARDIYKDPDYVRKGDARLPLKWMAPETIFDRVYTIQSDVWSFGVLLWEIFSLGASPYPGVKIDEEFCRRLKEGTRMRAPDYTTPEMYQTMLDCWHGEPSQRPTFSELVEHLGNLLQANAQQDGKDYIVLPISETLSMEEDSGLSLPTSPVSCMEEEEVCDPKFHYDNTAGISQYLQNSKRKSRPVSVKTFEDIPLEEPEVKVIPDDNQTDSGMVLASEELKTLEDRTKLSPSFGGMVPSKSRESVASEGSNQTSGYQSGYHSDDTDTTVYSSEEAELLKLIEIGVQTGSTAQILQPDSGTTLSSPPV
Method: as §1
FLT-3 and PDGFR β tyrosine kinase enzymes were purchased from Upstate Cell Signalling Solutions, CA, USA (flt-3 catalog #: 14-500 and PDGFR β catalog #: 14-463). KDR protein kinase enzyme was purchased from Millipore (catalogue #14-630M).
Kinase assays were performed in 384 well Optiplates (Packard) using an Alphascreen Protein Tyrosine Kinase kit. […] The biotinylated peptides Biotin-[…]-NH2 for c-KIT and PDGFRβ and Biotin-[…]-NH2 for CSF1-R and FLT-3 (final concentration 0.1-3 μM) were used as substrates. Alphascreen phosphotyrosine acceptor beads followed by streptavidin donor beads were added under subdued light. The Alphascreen plates were read on a Packard Fusion Alpha. Inhibitors were added to the assays thirty minutes prior to the addition of ATP. Inhibitors were added in aqueous DMSO, with DMSO concentrations never exceeding 1%.

mNFS-60 = test: Cellular assay (Alamar Blue), mNFS-60 with human M-CSF; type: cell-based; details: human M-CSF at 20 ng/ml, 72 hr
Method: (§4) Cells for the assays were prepared by harvesting cells from culture, and then diluting them in the appropriate growth medium to between 40,000 cell/mL and 600,000 cell/mL, depending on the cell line.
(§5) The compounds to be tested were added (104, 10× final concentration) to a flat bottomed 96-well plate. The cellular suspension (80 μL per well) was added, and one hour later the growth factor was added (human M-CSF at 20 ng/ml for mNFS-60, mouse IL-3 at 5 ng/ml for Baf3-WT). The plate was then incubated for 72 hr at 37° C., 5% CO2. Alamar Blue (10^4 per well) was added and the plates returned to the incubator for a further 4-8 hours.
(§6) The plates were then read using a fluorescence plate reader at excitation 544 nm and emission 590 nm.

Baf3-WT = test: Cellular assay (Alamar Blue), Baf3-WT with mouse IL-3; type: cell-based; details: mouse IL-3 at 5 ng/ml, 72 hr
Method: as §4, §5, §6

| pIC50 [1] | pIC50 [2] | pIC50 (PDGFR β tyrosine kinase) | pIC50 (KDR protein kinase) | pIC50 (Baf3-WT) | SMILES | pIC50 (mNFS-60) |
| --- | --- | --- | --- | --- | --- | --- |
| > 6.00 | > 6.00 | > 6.00 | – | – | C[C@H](Nc1cncc(-c2cccnc2)n1)c1cccc(NC(=O)c2cccnc2)c1 [Compound 11] | – |
| > 7.00 | > 7.00 | > 7.00 | – | – | COc1cccc(-c2cncc(N[C@@H](C)c3cccc(NC(=O)c4cccnc4)c3)n2)c1 [Compound 13] | – |
| > 7.00 | > 7.00 | > 6.00 | – | – | C[C@H](Nc1cncc(-c2cccc(NS(C)(=O)=O)c2)n1)c1cccc(NC(=O)c2cccnc2)c1 [Compound 16] | – |
| > 7.00 | > 7.00 | > 6.00 | – | – | C[C@H](Nc1cncc(-c2cn[nH]c2)n1)c1cccc(NC(=O)c2cccnc2)c1 [Compound 19] | – |
| > 7.00 | > 6.00 | > 6.00 | – | – | COc1cc(-c2cncc(N[C@@H](C)c3cccc(NC(=O)c4cncc(C)c4)c3)n2)ccc1OP(=O)(O)O [Compound 35] | – |
| > 7.00 | > 7.00 | > 6.00 | – | – | COc1cccc(-c2cncc(N[C@@H](C)c3cccc(NC(=O)c4ccc(C)nc4)c3)n2)c1 [Compound 36] | – |
| – | > 7.00 | > 7.00 | > 7.00 | < 5.00 | Cc1cncc(C(=O)Nc2cccc([C@H](C)Nc3cncc(Br)c3)c2)c1 [Compound 62] | > 6.00 |
| > 7.00 | > 7.00 | > 7.00 | > 7.00 | < 5.00 | Cc1cncc(C(=O)Nc2cccc([C@H](C)Nc3cncc(-c4ccc(N5CCOCC5)cc4)n3)c2)c1 [Compound 65] | > 6.70 |
| > 7.00 | > 6.00 | > 7.00 | > 7.00 | < 5.00 | COc1cccc(-c2cncc(N[C@@H](C)c3cccc(NC(=O)c4cccc(C)c4)c3)n2)c1 [Compound 100] | > 6.70 |
| – | – | – | – | < 5.00 | C[C@H](Nc1cncc(Cl)n1)c1cccc(NC(=O)c2cccc(CN3CCN(C)CC3)c2)c1 [Compound 127] | > 6.00 |
| > 7.00 | > 7.00 | – | > 7.00 | > 5.00 | Cc1cn(-c2cncc(N[C@@H](C)c3cccc(NC(=O)c4cccc(C(F)(F)F)c4)c3)n2)cn1 [Compound 179] | > 6.70 |
| > 7.00 | > 6.00 | – | > 7.00 | < 5.00 | C[C@H](Nc1cncc(-c2ccc(S(C)(=O)=O)cc2)n1)c1cccc(NC(=O)c2cccc(C(F)(F)F)c2)c1 [Compound 182] | > 6.70 |
| > 7.00 | > 7.00 | – | > 7.00 | < 5.00 | Cc1cncn1-c1cncc(N[C@@H](C)c2cccc(NC(=O)c3cccc(C(F)(F)F)c3)c2)n1 [Compound 188] | > 6.70 |
| > 7.00 | > 7.00 | – | > 7.00 | > 5.00 | C[C@H](Nc1cncc(-c2ccc(CN3CCN(C)CC3)cc2)n1)c1cccc(NC(=O)c2cccc(C(F)(F)F)c2)c1 [Compound 191] | > 6.70 |
| > 7.00 | > 7.00 | – | > 7.00 | < 5.00 | Cc1ccc(F)c(C(=O)Nc2cccc([C@H](C)Nc3cncc(-c4cccc(N5CCOCC5)c4)n3)c2)c1 [Compound 192] | > 6.70 |

Further lines, the molecule ahead of its results:

| SMILES | pIC50 [1] | pIC50 [2] | pIC50 (PDGFR β tyrosine kinase) | pIC50 (KDR protein kinase) | pIC50 (Baf3-WT) | pIC50 (mNFS-60) |
| --- | --- | --- | --- | --- | --- | --- |
| CC(Nc1cncc(-c2ccc(N)cc2)n1)c1cccc(NC(=O)c2cccnc2)c1 (racemic) [Compound 22] | > 7.00 | > 7.00 | > 6.00 | – | – | – |
| COc1cc(-c2cncc(N[C@@H](C)c3cccc(NC(=O)c4cccnc4)c3)n2)ccc1O [Compound 3] | – | > 7.00 | > 7.00 | – | – | – |
| COc1ccc(-c2cncc(N[C@@H](C)c3cccc(NC(=O)c4cccnc4)c3)n2)c(OC)n1 [Compound 20] | > 7.00 | > 7.00 | > 6.00 | – | – | – |
| Cc1ccc(NC(=O)c2cccc(C(F)(F)F)c2)cc1[C@H](C)Nc1cncc(Cl)n1 [Compound 169] | > 6.00 | > 6.00 | – | > 7.00 | > 5.00 | > 6.70 |
| C[C@H](Nc1cncc(-c2ccc(S(N)(=O)=O)cc2)n1)c1cccc(NC(=O)c2cccc(C(F)(F)F)c2)c1 [Compound 173] | > 7.00 | – | – | – | < 5.00 | > 6.00 |
| C[C@H](Nc1cncc(-c2ccc(CO)cc2)n1)c1cccc(NC(=O)c2cccc(C(F)(F)F)c2)c1 [Compound 174, (S)—N-(3-(1-(6-(4-(hydroxymethyl)phenyl)pyrazin-2-ylamino)ethyl)phenyl)-3-(trifluoromethyl)benzamide] | > 7.00 | > 7.00 | – | > 7.00 | < 5.00 | > 6.70 |
| C[C@H](Nc1cncc(-c2cccc(S(N)(=O)=O)c2)n1)c1cccc(NC(=O)c2cccc(C(F)(F)F)c2)c1 [Compound 178] | > 7.00 | > 6.00 | – | > 7.00 | > 5.00 | > 6.70 |
| C[C@H](Nc1cncc(-c2cccc(S(C)(=O)=O)c2)n1)c1cccc(NC(=O)c2cccc(C(F)(F)F)c2)c1 [Compound 181] | > 7.00 | > 7.00 | – | > 7.00 | > 5.00 | > 6.70 |
| C[C@H](Nc1cncc(-c2ccc(NS(C)(=O)=O)cc2)n1)c1cccc(NC(=O)c2cccc(C(F)(F)F)c2)c1 [Compound 183] | > 7.00 | > 6.00 | – | > 7.00 | > 5.00 | > 6.70 |
| C[C@H](Nc1cncc(-c2cccc(CO)c2)n1)c1cccc(NC(=O)c2cccc(C(F)(F)F)c2)c1 [Compound 185] | > 7.00 | > 6.00 | – | > 7.00 | > 5.00 | > 6.70 |
| C[C@H](Nc1cncc(-c2ccc(N3CCOCC3)nc2)n1)c1cccc(NC(=O)c2cccc(C(F)(F)F)c2)c1 [Compound 187] | > 7.00 | > 6.00 | – | > 7.00 | < 5.00 | > 6.70 |
| C[C@H](Nc1cncc(-c2cccc(N3CCOCC3)c2)n1)c1cccc(NC(=O)c2ccc(F)c(Cl)c2)c1 [Compound 189] | > 7.00 | > 6.00 | – | > 7.00 | < 5.00 | > 6.70 |
| COc1cccc(C(=O)Nc2cccc([C@H](C)Nc3cncc(-c4cccc(N5CCOCC5)c4)n3)c2)c1 [Compound 190] | > 7.00 | > 7.00 | – | > 7.00 | < 5.00 | > 6.70 |
